Experimental findings from US20240246955A1, “TROPOMYOSIN RECEPTOR KINASE (TRK) DEGRADATION COMPOUNDS AND METHODS OF USE” (CULLGEN (SHANGHAI), INC., priority 2021, published 2024) are described below.

SMILES strings stand for the structures.

Experiment [1] concerns KM12 cells. Description: KM12 cell viability assay (CellTiter-Glo). The experiment is classed as cell-based. The note with it: Homo sapiens, 72 h; KM12 cells, 3 days, CellTiter-Glo. Here is the method: The kinase activity of TRK is known to play important roles in tumors expressing TRK-fusion proteins, as TRK kinase inhibitors compromise cell proliferation, survival, and induce marked clinical responses (Amatu et al., 2016; Drilon et al., 2018; Drilon et al., 2017; Khotskaya et al., 2017). KM12 cells seeded in 96-well plates were treated with heterobifunctional compounds following a 11-point 3-fold serial dilution. Three days after treatment, cell viability was determined using the CellTiter-Glo kit, and normalized to the mean values of 3 replicates of untreated cells. Dose-dependent response was analyzed following the least-squares non-linear regression method using the GraphPad Prism software. Each data point in the figure represents the mean values of three technical replicates ±standard deviation.
KM12 cells seeded in 96-well plates were treated with heterobifunctional compounds following a 11-point 3-fold serial dilution for 3 days.
KM12, TRKA G595R mutated KM12, HEL, and other cells were cultured at 37° C. with 5% CO2 in DMEM or RPMI 1640 Medium supplemented with 10% fetal bovine serum. Cells were authenticated using the short tandem repeat (STR) assays. Mycoplasma test results were negative.
Cells were seeded at a density of 5000 cells per well in 96-well assay plates and treated with test compounds following a 11-point 3-fold serial dilution. Three days later, cell viability was determined using the CellTiter-Glo assay kit (Promega) according to the manufacturer's instructions. The dose-response curves were determined and IC50 values were calculated using the GraphPad Prism software following a nonlinear regression (least squares fit) method.

Experiment [2] has as its target T1, TPM3-TRKA fusion protein (Homo sapiens, UniProt P04629).
T1 construct: TPM3 (N-terminal part of tropomyosin alpha-3, natural fusion partner); endogenous in cells; host or cells: KM12 colon cancer cells; the other entry of the earlier key: TPM3 (P06753, Tropomyosin alpha-3 chain)
Description: TPM3-TRKA degradation in KM12 cells (Western blot). The experiment is classed as cell-based. The note with it: 16 hours, TRK protein, immunoblot; for inhibition at 0.01 µM: 10 nM; for inhibition at 0.1 µM: 100 nM. Here is the method:
Specific exemplary heterobifunctional compounds were characterized in KM12 cells. KM12 cells that express TPM3-TRKA fusion protein were treated with 10 nM or 100 nM heterobifunctional compounds disclosed herein or their corresponding warheads/inhibitors for 16 hours. Cells were collected, lysed and subject to immunoblotting using an antibody specific to TRK proteins.
KM12 cells were treated with heterobifunctional compounds at 10 nM or 100 nM for 16 hours.
Cultured cells were washed with cold PBS once and lysed in cold RIPA buffer supplemented with protease inhibitors and phosphatase inhibitors (Beyotime Biotechnology). The solutions were then incubated at 4° C. for 30 minutes with gentle agitation to fully lyse cells. Cell lysates were centrifuged at 13,000 rpm for 10 minutes at 4° C. and pellets were discarded. Total protein concentrations in the lysates were determined by BCA assays (Beyotime Biotechnology). Cell lysates were mixed with Laemmli loading buffer to 1× and heated at 99° C. for 5 min. Proteins were resolved on SDS-PAGE and visualized by chemiluminescence. Images were taken by a ChemiDoc MP Imaging system (Bio-Rad). Protein bands were quantitated using the software provided by Bio-Rad.
The percentage of TRK protein degradation of each compound at 10 nM and 100 nM was determined in KM12 cells as described in Methods. The percentage of degradation of each compound was indicated in the following categories: N/A: data not available; −: no degradation; +: degradation less than 50%; ++: degradation equal or greater than 50% but less than […]; +++: degradation equal or greater than 80%.
(In general: Immunoblotting shows a protein as a band on a membrane.)

T1 sequence (P04629 with tags, fused parts or gaps): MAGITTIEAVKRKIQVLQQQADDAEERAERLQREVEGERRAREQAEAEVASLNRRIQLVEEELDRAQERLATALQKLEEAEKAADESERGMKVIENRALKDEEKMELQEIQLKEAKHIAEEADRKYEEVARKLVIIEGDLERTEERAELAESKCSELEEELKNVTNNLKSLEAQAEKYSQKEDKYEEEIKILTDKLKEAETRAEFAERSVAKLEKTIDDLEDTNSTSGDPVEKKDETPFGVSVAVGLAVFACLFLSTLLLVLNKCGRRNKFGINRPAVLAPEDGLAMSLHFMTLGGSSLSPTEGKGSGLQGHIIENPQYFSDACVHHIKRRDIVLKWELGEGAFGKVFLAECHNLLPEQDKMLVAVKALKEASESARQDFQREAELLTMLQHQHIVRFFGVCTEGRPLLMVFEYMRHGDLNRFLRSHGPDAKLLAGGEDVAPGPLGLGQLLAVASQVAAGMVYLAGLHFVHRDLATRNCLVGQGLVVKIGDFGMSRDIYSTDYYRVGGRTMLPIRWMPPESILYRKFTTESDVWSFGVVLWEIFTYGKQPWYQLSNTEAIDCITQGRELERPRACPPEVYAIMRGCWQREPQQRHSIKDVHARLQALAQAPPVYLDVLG

`COCCN1C[C@@H](NC(=O)Nc2c(C)c(-c3cnc(N4CCN(C(=O)CNC(=O)C[C@H](NC(=O)[C@@H]5C[C@@H](O)CN5C(=O)[C@@H](NC(=O)C5(F)CC5)C(C)(C)C)c5ccc(-c6scnc6C)cc5)CC4)nc3)nn2-c2ccccc2)[C@H](c2cccc(F)c2)C1` [CPD-011, (2S,4R)-1-((S)-2-(1-fluorocyclopropane-1-carboxamido)-3,3-dimethylbutanoyl)-N-((S)-3-((2-(4-(5-(5-(3-((3S,4R)-4-(3-fluorophenyl)-1-(2-methoxyethyl)pyrrolidin-3-yl)ureido)-4-methyl-1-phenyl-1H-pyrazol-3-yl)pyrimidin-2-yl)piperazin-1-yl)-2-oxoethyl)amino)-1-(4-(4-methylthiazol-5-yl)phenyl)-3-oxopropyl)-4-hydroxypyrrolidine-2-carboxamide] came in with an IC50 in experiment [1] of 119 nM. In experiment [2], the inhibition at 0.01 µM is below 50% and the inhibition at 0.1 µM lay in the range of 50 to 800%.

As to `COCCN1C[C@@H](NC(=O)Nc2c(C)c(-c3cnc(N4CCN(C(=O)CCCCCNC(=O)C[C@H](NC(=O)[C@@H]5C[C@@H](O)CN5C(=O)[C@@H](NC(=O)C5(F)CC5)C(C)(C)C)c5ccc(-c6scnc6C)cc5)CC4)nc3)nn2-c2ccccc2)[C@H](c2cccc(F)c2)C1` [CPD-012, (2S,4R)-1-((S)-2-(1-fluorocyclopropane-1-carboxamido)-3,3-dimethylbutanoyl)-N-((S)-3-((6-(4-(5-(5-(3-((3S,4R)-4-(3-fluorophenyl)-1-(2-methoxyethyl)pyrrolidin-3-yl)ureido)-4-methyl-1-phenyl-1H-pyrazol-3-yl)pyrimidin-2-yl)piperazin-1-yl)-6-oxohexyl)amino)-1-(4-(4-methylthiazol-5-yl)phenyl)-3-oxopropyl)-4-hydroxypyrrolidine-2-carboxamide], in experiment [1], the IC50 was found to be 132 nM. Also, in experiment [2], the inhibition at 0.01 µM was below 50% and the inhibition at 0.1 µM lay within 50 to 800%.

With `COCCN1C[C@@H](NC(=O)Nc2c(C)c(-c3cnc(N4CCN(C(=O)CCCNC(=O)C[C@H](NC(=O)[C@@H]5C[C@@H](O)CN5C(=O)[C@@H](NC(=O)C5(F)CC5)C(C)(C)C)c5ccc(-c6scnc6C)cc5)CC4)nc3)nn2-c2ccccc2)[C@H](c2cccc(F)c2)C1` [CPD-013, (2S,4R)-1-((S)-2-(1-fluorocyclopropane-1-carboxamido)-3,3-dimethylbutanoyl)-N-((S)-3-((4-(4-(5-(5-(3-((3S,4R)-4-(3-fluorophenyl)-1-(2-methoxyethyl)pyrrolidin-3-yl)ureido)-4-methyl-1-phenyl-1H-pyrazol-3-yl)pyrimidin-2-yl)piperazin-1-yl)-4-oxobutyl)amino)-1-(4-(4-methylthiazol-5-yl)phenyl)-3-oxopropyl)-4-hydroxypyrrolidine-2-carboxamide], it took 79.7 nM to reach half-maximal inhibition in experiment [1] (IC50). Besides, in experiment [2], the inhibition at 0.01 µM is below 50% and the inhibition at 0.1 µM fell in the range of 50 to 800%.

Consider `COCCN1C[C@@H](NC(=O)Nc2c(C)c(-c3cnc(N4CCN(C(=O)CCCCCCCNC(=O)C[C@H](NC(=O)[C@@H]5C[C@@H](O)CN5C(=O)[C@@H](NC(=O)C5(F)CC5)C(C)(C)C)c5ccc(-c6scnc6C)cc5)CC4)nc3)nn2-c2ccccc2)[C@H](c2cccc(F)c2)C1` [CPD-014, (2S,4R)-1-((S)-2-(1-fluorocyclopropane-1-carboxamido)-3,3-dimethylbutanoyl)-N-((S)-3-((8-(4-(5-(5-(3-((3S,4R)-4-(3-fluorophenyl)-1-(2-methoxyethyl)pyrrolidin-3-yl)ureido)-4-methyl-1-phenyl-1H-pyrazol-3-yl)pyrimidin-2-yl)piperazin-1-yl)-8-oxooctyl)amino)-1-(4-(4-methylthiazol-5-yl)phenyl)-3-oxopropyl)-4-hydroxypyrrolidine-2-carboxamide], for which it took 17.8 nM to reach half-maximal inhibition in experiment [1] (IC50). Besides, in experiment [2], the inhibition at 0.01 µM is 50 to 800% and the inhibition at 0.1 µM was above 80%.

Take `COCCN1C[C@@H](NC(=O)Nc2c(C)c(-c3cnc(N4CCN(C(=O)CCCCCCCCCNC(=O)C[C@H](NC(=O)[C@@H]5C[C@@H](O)CN5C(=O)[C@@H](NC(=O)C5(F)CC5)C(C)(C)C)c5ccc(-c6scnc6C)cc5)CC4)nc3)nn2-c2ccccc2)[C@H](c2cccc(F)c2)C1` [CPD-015, (2S,4R)-1-((S)-2-(1-fluorocyclopropane-1-carboxamido)-3,3-dimethylbutanoyl)-N-((S)-3-((10-(4-(5-(5-(3-((3S,4R)-4-(3-fluorophenyl)-1-(2-methoxyethyl)pyrrolidin-3-yl)ureido)-4-methyl-1-phenyl-1H-pyrazol-3-yl)pyrimidin-2-yl)piperazin-1-yl)-10-oxodecyl)amino)-1-(4-(4-methylthiazol-5-yl)phenyl)-3-oxopropyl)-4-hydroxypyrrolidine-2-carboxamide]: in experiment [1], the IC50 is 35.5 nM. In experiment [2], the inhibition at 0.01 µM lay within 50 to 800% and the inhibition at 0.1 µM was 50 to 800%.

In experiment [1], `COCCN1C[C@@H](NC(=O)Nc2c(C)c(-c3cnc(N4CCN(C(=O)CCOCCOCCNC(=O)C[C@H](NC(=O)[C@@H]5C[C@@H](O)CN5C(=O)[C@@H](NC(=O)C5(F)CC5)C(C)(C)C)c5ccc(-c6scnc6C)cc5)CC4)nc3)nn2-c2ccccc2)[C@H](c2cccc(F)c2)C1` [CPD-016, (2S,4R)-1-((S)-2-(1-fluorocyclopropane-1-carboxamido)-3,3-dimethylbutanoyl)-N-((S)-3-((2-(2-(3-(4-(5-(5-(3-((3S,4R)-4-(3-fluorophenyl)-1-(2-methoxyethyl)pyrrolidin-3-yl)ureido)-4-methyl-1-phenyl-1H-pyrazol-3-yl)pyrimidin-2-yl)piperazin-1-yl)-3-oxopropoxy)ethoxy)ethyl)amino)-1-(4-(4-methylthiazol-5-yl)phenyl)-3-oxopropyl)-4-hydroxypyrrolidine-2-carboxamide] came in with an IC50 of 190 nM. Also, in experiment [2], the inhibition at 0.01 µM is below 50% and the inhibition at 0.1 µM was 50 to 800%.

The molecule `COCCN1C[C@@H](NC(=O)Nc2c(C)c(-c3cnc(N4CCN(C(=O)CCOCCOCCOCCNC(=O)C[C@H](NC(=O)[C@@H]5C[C@@H](O)CN5C(=O)[C@@H](NC(=O)C5(F)CC5)C(C)(C)C)c5ccc(-c6scnc6C)cc5)CC4)nc3)nn2-c2ccccc2)[C@H](c2cccc(F)c2)C1` [CPD-017, (2S,4R)-1-((S)-2-(1-fluorocyclopropane-1-carboxamido)-3,3-dimethylbutanoyl)-N-((S)-16-(4-(5-(5-(3-((3S,4R)-4-(3-fluorophenyl)-1-(2-methoxyethyl)pyrrolidin-3-yl)ureido)-4-methyl-1-phenyl-1H-pyrazol-3-yl)pyrimidin-2-yl)piperazin-1-yl)-1-(4-(4-methylthiazol-5-yl)phenyl)-3,16-dioxo-7,10,13-trioxa-4-azahexadecyl)-4-hydroxypyrrolidine-2-carboxamide] returned an IC50 in experiment [1] of 445 nM. In experiment [2], the inhibition at 0.1 µM was 50 to 800%.

The molecule `COCCN1C[C@@H](NC(=O)Nc2c(C)c(-c3cnc(N4CCN(C(=O)CCOCCOCCOCCOCCNC(=O)C[C@H](NC(=O)[C@@H]5C[C@@H](O)CN5C(=O)[C@@H](NC(=O)C5(F)CC5)C(C)(C)C)c5ccc(-c6scnc6C)cc5)CC4)nc3)nn2-c2ccccc2)[C@H](c2cccc(F)c2)C1` [CPD-018, (2S,4R)-1-((S)-2-(1-fluorocyclopropane-1-carboxamido)-3,3-dimethylbutanoyl)-N-((S)-19-(4-(5-(5-(3-((3S,4R)-4-(3-fluorophenyl)-1-(2-methoxyethyl)pyrrolidin-3-yl)ureido)-4-methyl-1-phenyl-1H-pyrazol-3-yl)pyrimidin-2-yl)piperazin-1-yl)-1-(4-(4-methylthiazol-5-yl)phenyl)-3,19-dioxo-7,10,13,16-tetraoxa-4-azanonadecyl)-4-hydroxypyrrolidine-2-carboxamide] registered an IC50 in experiment [1] of 852 nM. For the same molecule, in experiment [2], the inhibition at 0.1 µM lay within 50 to 800%.

As a reminder, the IC50 is the concentration needed to halve the response being measured. Low readings indicate inhibition by little substance, high ones a need for much substance. For orientation: inhibition means the change of the read-out against control, counted positive when it falls.
